The source of these data is US11779572B1, “Methods of treating gastrointestinal stromal tumors” (Deciphera Pharmaceuticals, LLC, priority 2022, dated 2023).

Where two headings read alike, the source gives them in different places. Where only a bound is given, the exact number is not on record here.

Broadly, the half-life is how long it takes for the measured level to halve. Usually fraction unbound stands for the share of the substance not bound to proteins or other matrix.

The nature of data set [1]: Observed clinical PK after single and multiple doses. Format: in vivo. Conditions: human, plasma, oral; SD administration, healthy participants. The protocol: CYP3A4 inactivation parameters and induction parameters were subsequently incorporated in the model to assess the net effect on drug clearance at steady state. Due to the uncertainty in the in vitro CYP3A4 MBI data and CYP3A4 induction data, a series of sensitivity analysis was performed. […] Therefore, the in vitro CYP3A4 interaction data were used in the final model. The simulated profiles of ripretinib and DP-5439 in virtual participants were compared to the clinical data. […] The predicted mean AUC0-12 values for DP-5439 on Day 1 were within 2-fold (majority within 1.5-fold) of the observed values, except for the 250-mg QD dose. The mean AUC0-12 and Cmax values for DP-5439 on Day 15 were under-predicted. […] For example, the reported AUCs for ripretinib and DP-5439 at the 150-mg QD dose level were 1.66 and 5.29, respectively. […] The mechanisms for the accumulation of DP-5439 were unclear.

A short description of data set [2]: PBPK model of ripretinib and DP-5439 (Simcyp Simulator).
Source text: A PBPK model that included a mechanistic absorption model was developed.
Thus, potential auto-induction and auto-inhibition effects were captured within the model.
Single dose (SD) PK data from participants with mild, moderate, and severe HI were used to refine and/or verify the PBPK model. […] Subsequently, the corresponding plasma concentration-time profiles in HI participants were likewise simulated and compared to the observed data.
Predictions of plasma drug concentration-time profiles, clearance and DDIs were performed in the Simcyp Simulator using a population of virtual participants. The default healthy participant population was applied in all simulations involving healthy participants. […] With the exception of demographic data, all parameter values for the healthy participant population were the same as those used for the North European Caucasian population.
For simulations involving cancer participants, the North European Caucasian population was used to accommodate the wider age range observed in this population (19 to 87 years old; median 61 years). Weibull age distribution was applied with alpha and beta values of 5.47 and 66.5 years for male participants and 5.22 and 68.57 years for female participants. Age, height and weight distributions for the simulated virtual participant population were consistent with those from the first-in-human dose-escalation study in cancer patients.
For simulations involving participants with HI, 3 population models have been developed for the Simcyp Simulator and are based on the 3 Child-Pugh categories (CP-A, CP-B and CP-C). […] When reduced hepatic size was also taken into account, overall CYP3A4 expression in CP-A, CP-B and CP-C participants was reduced to 69%, 36% and 20%, respectively, to that of healthy participants.
Data set [3] can be described thus: Coadministration with pantoprazole (proton-pump inhibitor). Format: in vivo, human. Conditions: 40 mg QD pantoprazole with 150 mg QD ripretinib. As to the method: The effect of a proton-pump inhibitor on the exposure of ripretinib was evaluated.
The test system of the next data set is plasma proteins. The data set can be described thus: Unbound fraction / plasma protein binding. Format: in vitro ADME, human. The text has this: (§1) Both ripretinib and DP-5439 display high binding to plasma proteins in vitro; therefore, clinical samples were collected to investigate the effect of HI on the unbound fraction (fu) % for both analytes. Distributions of individual mean fu % for both ripretinib and DP-5439 show high variability between participants. The ripretinib mean fu % was ≤0.6% in healthy participants and in participants with hepatic impairment. The DP-5439 fu % was ≤0.5% in healthy participants and 0.2% to 1.4% in participants with hepatic impairment. No clear trend could be established between unbound ripretinib and DP-5439 PK parameters and the degrees of HI.

A short description of data set [4]: Unbound fraction / plasma protein binding. Conditions: human, plasma, oral, 50 mg, read-out: unbound fraction fu %. Format: in vitro ADME, human.
Source text: as §1

Data set [5] in a line: Food effect (high-fat meal) on exposure. Conditions: 150 mg dose of ripretinib. Format: in vivo, human. The protocol: The effect of a high-fat breakfast on ripretinib and Compound A exposure was evaluated. A high fat meal consisted of approximately 150, 250, and 500-600 calories from protein, carbohydrate, and fat, respectively. […] The food effect is not considered to be clinically significant based on exposure-response analysis. Therefore, ripretinib may be taken with or without food at approximately same time each day.

`CCn1c(=O)c(-c2cc(NC(=O)Nc3ccccc3)c(F)cc2Br)cc2cnc(N)cc21` [Compound A] showed a half-life in data set [1] of roughly 17 h. The “all predictions relative to observed” value in data set [2] (150 mg QD dose) is no more than 2 fold. Also, the “predicted mean AUC0-12 relative to observed values” in data set [2] (Day 1, except 250-mg QD dose) is recorded as no more than 2 fold. Moreover, the “plasma exposure when ripretinib is coadministered with pantoprazole” value in data set [3] is given as “No clinically significant differences”. Besides, the “binding to plasma proteins” value in the data set on plasma proteins (in vitro) was “high binding”. Besides, the “impact of HI (albumin, ALP, ALT, AST, bilirubin changes) on unbound exposure” value in the data set on plasma proteins (visual assessment) is listed as “did not appear to have an impact”. The fraction unbound in data set [4] (healthy participants) was no more than 0.005; in data set [4] (participants with hepatic impairment), 0.002 to 0.014. For the same compound, the “AUC0-24h higher with a high-fat meal” value in data set [5] was 47%. Also, the “Cmax higher with a high-fat meal” value in data set [5] is 66%.
